What was measured:
Cytochrome P450 3A4 [1] = target: T1, Cytochrome P450 3A4 (Homo sapiens, UniProt P08684); experiment: Inhibition of CYP3A4 (unknown origin) using DBF as substrate by fluorescence assay
[2] = Half life in dog liver microsomes; conditions: microsomes
[3] = Oral bioavailability in beagle dog at 5 mg/kg; assay type: ADME, organism-based, Canis lupus familiaris; conditions: in vivo
[4] = AUC(infinity) in Sprague-Dawley rat at 1 mg/kg, iv; assay type: ADME, organism-based; design: time infinity, dose 1 mg/kg, route intravenous; conditions: plasma
[5] = Growth inhibition of human SKBR3 cells after 5 days by SRB assay; assay type: functional; conditions: SK-BR-3, 120 h
Cytochrome P450 3A4 [6] = target: T1, Cytochrome P450 3A4; experiment: Inhibition of CYP3A4 (unknown origin) using BFC as substrate by fluorescence assay
[7] = Half life in beagle dog at 1 mg/kg, iv; assay type: ADME, organism-based, Canis lupus familiaris; design: dose 1 mg/kg, route intravenous; conditions: in vivo
[8] = Growth inhibition of human COLO205 cells after 5 days by SRB assay; assay type: functional; conditions: COLO 205, 120 h
[9] = AUC in athymic CD1 nude mouse at 25 mg/kg, po by LC/MS/MS analysis; assay type: ADME, organism-based; design: dose 25 mg/kg, route oral; conditions: plasma
[10] = AUC(infinity) in Sprague-Dawley rat at 5 mg/kg, po; assay type: ADME, organism-based; design: dose 5 mg/kg, route oral, time infinity; conditions: plasma
[11] = Half life in human liver microsomes; conditions: microsomes
[12] = AUC(infinity) in beagle dog at 5 mg/kg, po; assay type: ADME, organism-based, Canis lupus familiaris; design: time infinity, dose 5 mg/kg, route oral; conditions: plasma
[13] = AUC(infinity) in beagle dog at 1 mg/kg, iv; assay type: ADME, organism-based, Canis lupus familiaris; design: time infinity, dose 1 mg/kg, route intravenous; conditions: plasma
[14] = Growth inhibition of human BT20 cells after 5 days by SRB assay; assay type: functional; conditions: BT-20, 120 h
MDA-MB-468 [15] = experiment: Antitumor activity against human MDA-MB-468 cells xenografted in CB-17 SCID mouse assessed as tumor growth inhibition at 3 mg/kg, po qd administered for 21 days; assay type: functional; conditions: MDA-MB-468, 504 h, read-out: TGI
[16] = Cmax in athymic CD1 nude mouse at 25 mg/kg, po by LC/MS/MS analysis; assay type: ADME, organism-based; design: dose 25 mg/kg, route oral; conditions: in vivo
Mus musculus = experiment: Toxicity in CB-17 SCID mouse xenografted with human A549 cells assessed as death at 9.4 mg/kg, po qd administered for 21 days; assay type: organism-based; design: dose 9.4 mg/kg, route oral; conditions: in vivo, 504 h
[17] = Toxicity in po dosed athymic CD-1 nude mouse xenografted with human HCT116 cells administered qd 1-on/3-off schedule up to day 21; assay type: organism-based, HCT-116; conditions: CD-1 athymic nude, in vivo
[18] = Antitumor activity against human HCT116 cells xenografted in athymic CD-1 nude mouse assessed as tumor growth inhibition at MTD, po qd administered 1-on/3-off schedule up to day 21; assay type: functional, HCT-116
Cytochrome P450 2D6 = Cytochrome P450 2D6 (Homo sapiens, UniProt P10635); experiment: Inhibition of CYP2D6 (unknown origin) by fluorescence assay; assay type: ADME
Sequence of Cytochrome P450 2D6 (P10635 whole entry): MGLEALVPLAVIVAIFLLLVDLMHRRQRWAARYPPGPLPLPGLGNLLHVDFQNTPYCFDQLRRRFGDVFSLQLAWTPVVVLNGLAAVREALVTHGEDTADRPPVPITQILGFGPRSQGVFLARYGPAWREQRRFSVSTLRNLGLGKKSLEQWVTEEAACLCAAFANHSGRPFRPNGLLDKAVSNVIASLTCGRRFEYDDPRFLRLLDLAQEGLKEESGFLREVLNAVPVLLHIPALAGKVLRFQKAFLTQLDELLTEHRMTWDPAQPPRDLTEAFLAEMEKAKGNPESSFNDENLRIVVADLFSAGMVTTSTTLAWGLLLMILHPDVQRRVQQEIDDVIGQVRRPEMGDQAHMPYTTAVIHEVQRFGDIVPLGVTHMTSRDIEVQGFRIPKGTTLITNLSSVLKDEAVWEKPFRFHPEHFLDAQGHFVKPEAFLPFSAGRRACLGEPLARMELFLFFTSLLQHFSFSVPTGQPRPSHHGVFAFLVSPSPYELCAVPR

Cytochrome P450 1A2 = target: T2, Cytochrome P450 1A2 (Homo sapiens, UniProt P05177); experiment: Inhibition of CYP1A2 (unknown origin) by fluorescence assay; assay type: ADME
T2 sequence (P05177 whole entry): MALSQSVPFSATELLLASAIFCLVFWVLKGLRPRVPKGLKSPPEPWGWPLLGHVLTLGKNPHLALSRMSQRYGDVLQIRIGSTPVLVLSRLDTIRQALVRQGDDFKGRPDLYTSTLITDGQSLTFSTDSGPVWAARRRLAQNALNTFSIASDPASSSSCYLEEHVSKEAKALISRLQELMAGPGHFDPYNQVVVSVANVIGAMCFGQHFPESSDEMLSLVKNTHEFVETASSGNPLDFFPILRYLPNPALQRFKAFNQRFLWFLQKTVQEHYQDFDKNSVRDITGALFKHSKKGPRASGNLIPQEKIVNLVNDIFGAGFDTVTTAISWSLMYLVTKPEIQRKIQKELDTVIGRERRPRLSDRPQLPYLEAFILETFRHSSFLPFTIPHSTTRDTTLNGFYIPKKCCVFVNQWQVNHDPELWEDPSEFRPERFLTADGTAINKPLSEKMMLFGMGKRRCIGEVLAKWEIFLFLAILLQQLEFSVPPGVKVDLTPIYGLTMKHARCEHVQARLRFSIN

[19] = Growth inhibition of human HCT116 cells after 5 days by SRB assay; assay type: functional; conditions: HCT-116, 120 h
[20] = Antitumor activity against human SW620 cells xenografted in CB-17 SCID mouse assessed as tumor growth inhibition at 3 mg/kg, po qd administered for 21 days; assay type: functional; conditions: SW-620, 504 h, read-out: TGI
[21] = Growth inhibition of human OVCAR3 cells after 5 days by SRB assay; assay type: functional; conditions: OVCAR-3, 120 h
[22] = Half life in mouse liver microsomes; conditions: microsomes
A549 [23] = experiment: Antitumor activity against human A549 cells xenografted in CB-17 SCID mouse assessed as tumor growth inhibition at 3 mg/kg, po qd administered for 21 days; assay type: functional; conditions: A549, 504 h, read-out: TGI
Cytochrome P450 2C19 = Cytochrome P450 2C19 (Homo sapiens, UniProt P33261); experiment: Inhibition of CYP2C19 (unknown origin) by fluorescence assay
Sequence of Cytochrome P450 2C19 (P33261 whole entry): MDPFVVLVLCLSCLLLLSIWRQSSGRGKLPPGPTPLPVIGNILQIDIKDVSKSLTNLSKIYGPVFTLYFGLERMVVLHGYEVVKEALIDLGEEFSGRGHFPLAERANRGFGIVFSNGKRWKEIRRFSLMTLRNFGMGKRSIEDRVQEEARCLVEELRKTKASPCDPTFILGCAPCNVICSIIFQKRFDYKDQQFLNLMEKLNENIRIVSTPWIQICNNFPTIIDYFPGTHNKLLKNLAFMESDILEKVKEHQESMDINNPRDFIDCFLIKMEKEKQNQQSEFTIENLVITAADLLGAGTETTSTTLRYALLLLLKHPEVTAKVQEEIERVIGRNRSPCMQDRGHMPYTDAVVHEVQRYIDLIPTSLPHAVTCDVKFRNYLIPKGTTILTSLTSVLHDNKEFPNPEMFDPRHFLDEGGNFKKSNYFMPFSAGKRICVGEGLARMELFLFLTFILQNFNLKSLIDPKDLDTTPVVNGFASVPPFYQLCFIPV

MDA-MB-231 = experiment: Growth inhibition of human MDA-MB-231 cells after 5 days by SRB assay; assay type: functional; conditions: Homo sapiens, MDA-MB-231, 120 h
[24] = Growth inhibition of human CAL51 cells after 5 days by SRB assay; assay type: functional; conditions: CAL-51, 120 h
MDA-MB-468 [25] = experiment: Antitumor activity against human MDA-MB-468 cells xenografted in CB-17 SCID mouse assessed as tumor growth inhibition at 9.4 mg/kg, po qd administered for 21 days; assay type: functional; conditions: MDA-MB-468, 504 h, read-out: TGI
[26] = Antitumor activity against human SW620 cells xenografted in CB-17 SCID mouse assessed as tumor growth inhibition at 9.4 mg/kg, po qd administered for 21 days; assay type: functional; conditions: SW-620, 504 h, read-out: TGI
[27] = Growth inhibition of human HMEC cells after 5 days by SRB assay; assay type: cell-based; conditions: HMEC cells
[28] = Half life in rat liver microsomes; conditions: microsomes
[29] = Oral bioavailability in Sprague-Dawley rat at 5 mg/kg; assay type: ADME, organism-based; conditions: in vivo
MCF7 = experiment: Growth inhibition of human MCF7 cells after 5 days by SRB assay; assay type: functional; conditions: Homo sapiens, MCF7, 120 h
MDA-MB-468 [30] = experiment: Growth inhibition of human MDA-MB-468 cells after 5 days by SRB assay; assay type: functional; conditions: Homo sapiens, MDA-MB-468, 120 h
[31] = Half life in Sprague-Dawley rat at 1 mg/kg, iv; assay type: ADME, organism-based; design: dose 1 mg/kg, route intravenous; conditions: in vivo
A549 [32] = experiment: Growth inhibition of human A549 cells after 5 days by SRB assay; assay type: functional; conditions: A549, 120 h
SW-620 = experiment: Growth inhibition of human SW620 cells after 5 days by SRB assay; assay type: functional; conditions: SW-620, 120 h
Cytochrome P450 2C9 = Cytochrome P450 2C9 (Homo sapiens, UniProt P11712); experiment: Inhibition of CYP2C9 (unknown origin) by fluorescence assay
Sequence of Cytochrome P450 2C9 (P11712 whole entry): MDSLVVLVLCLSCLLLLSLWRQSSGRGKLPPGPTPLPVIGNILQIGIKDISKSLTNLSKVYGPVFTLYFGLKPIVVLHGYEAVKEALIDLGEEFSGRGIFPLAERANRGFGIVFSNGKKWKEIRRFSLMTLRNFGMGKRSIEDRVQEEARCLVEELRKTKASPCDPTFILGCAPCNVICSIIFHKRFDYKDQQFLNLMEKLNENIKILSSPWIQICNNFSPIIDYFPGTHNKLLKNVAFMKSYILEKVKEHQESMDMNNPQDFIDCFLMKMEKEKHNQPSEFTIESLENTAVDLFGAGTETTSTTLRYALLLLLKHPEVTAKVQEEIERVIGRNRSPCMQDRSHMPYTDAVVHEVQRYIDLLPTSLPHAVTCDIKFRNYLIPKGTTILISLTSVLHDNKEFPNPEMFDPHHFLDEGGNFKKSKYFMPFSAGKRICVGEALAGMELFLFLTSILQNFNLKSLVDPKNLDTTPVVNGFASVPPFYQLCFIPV

HCC1954 = experiment: Growth inhibition of human HCC1954 cells after 5 days by SRB assay; assay type: functional; conditions: Homo sapiens, HCC1954, 120 h

T1 sequence (P08684 whole entry): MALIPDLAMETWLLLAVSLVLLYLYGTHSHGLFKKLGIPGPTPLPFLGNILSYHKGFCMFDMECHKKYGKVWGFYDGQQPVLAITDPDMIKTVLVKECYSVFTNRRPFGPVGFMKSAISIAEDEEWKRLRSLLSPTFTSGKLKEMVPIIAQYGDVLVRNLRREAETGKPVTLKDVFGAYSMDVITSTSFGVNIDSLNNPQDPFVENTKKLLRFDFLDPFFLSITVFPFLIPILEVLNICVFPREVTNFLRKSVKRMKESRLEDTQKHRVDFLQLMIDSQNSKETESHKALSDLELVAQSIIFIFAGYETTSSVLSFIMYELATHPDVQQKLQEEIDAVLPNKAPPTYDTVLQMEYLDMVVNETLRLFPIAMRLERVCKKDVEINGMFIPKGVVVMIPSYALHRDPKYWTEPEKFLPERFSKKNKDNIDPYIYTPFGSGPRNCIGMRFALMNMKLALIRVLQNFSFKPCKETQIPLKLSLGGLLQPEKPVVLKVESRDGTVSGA

**Q.** For `COc1ccc2c(c1)[C@]1(C[C@H]1c1ccc3c(/C=C/c4ccc(CN5CCOCC5)cc4)n[nH]c3c1)C(=O)N2C`, which IC50 (Cytochrome P450 3A4 [1]) is on record?
**A.** 6000 nM

**Q.** What about the half-life [2] of the same compound?
**A.** 13 min

**Q.** What about the bioavailability [3] of the same compound?
**A.** 32%

**Q.** And the AUC(0-inf) [4]?
**A.** 553 ng·h/mL

**Q.** And the GI50 [5]?
**A.** 6500 nM

**Q.** And the IC50 (Cytochrome P450 3A4 [6])?
**A.** 20000 nM

**Q.** What about the half-life [7] of the same compound?
**A.** 180 min

**Q.** And the GI50 [8]?
**A.** 7 nM

**Q.** And the AUC [9]?
**A.** 17000 ng·h/mL

**Q.** And the AUC(0-inf) [10]?
**A.** 688 ng·h/mL

**Q.** And the half-life [11]?
**A.** 37 min

**Q.** And the AUC(0-inf) [12]?
**A.** 1030 ng·h/mL

**Q.** What about the AUC(0-inf) [13] of the same compound?
**A.** 648 ng·h/mL

**Q.** What about the GI50 [14] of the same compound?
**A.** 55 nM

**Q.** What about the inhibition in vivo at 3 mg/kg (MDA-MB-468 [15]) of the same compound?
**A.** 61%

**Q.** What about the Cmax [16] of the same compound?
**A.** 5900 ng/mL

**Q.** What about the Activity (Mus musculus) of the same compound?
**A.** Toxic

**Q.** And the MTD at 21 days [17]?
**A.** 39 mg/kg

**Q.** What about the TGI [18] of the same compound?
**A.** 90%

**Q.** And the “inhibition (INH)” value (Cytochrome P450 2D6)?
**A.** Not Active

**Q.** And the “inhibition (INH)” value (Cytochrome P450 1A2)?
**A.** Not Active

**Q.** And the GI50 [19]?
**A.** 5 nM

**Q.** What about the inhibition in vivo at 3 mg/kg [20] of the same compound?
**A.** 47%

**Q.** What about the GI50 [21] of the same compound?
**A.** 7 nM

**Q.** What about the half-life [22] of the same compound?
**A.** 24 min

**Q.** What about the inhibition in vivo at 3 mg/kg (A549 [23]) of the same compound?
**A.** 46%

**Q.** And the IC50 (Cytochrome P450 2C19)?
**A.** 1000 nM

**Q.** And the GI50 (MDA-MB-231)?
**A.** 20000 nM

**Q.** And the GI50 [24]?
**A.** 110 nM

**Q.** And the inhibition in vivo at 9.4 mg/kg (MDA-MB-468 [25])?
**A.** 96%

**Q.** And the inhibition in vivo at 9.4 mg/kg [26]?
**A.** 77%

**Q.** And the GI50 at 120 h [27]?
**A.** > 30000 nM

**Q.** What about the half-life [28] of the same compound?
**A.** 6.4 min

**Q.** And the bioavailability [29]?
**A.** 25%

**Q.** And the GI50 (MCF7)?
**A.** < 10 nM

**Q.** What about the GI50 (MDA-MB-468 [30]) of the same compound?
**A.** < 10 nM

**Q.** What about the half-life [31] of the same compound?
**A.** 78 min

**Q.** What about the GI50 (A549 [32]) of the same compound?
**A.** 4 nM

**Q.** What about the GI50 (SW-620) of the same compound?
**A.** 600 nM

**Q.** What about the IC50 (Cytochrome P450 2C9) of the same compound?
**A.** 1000 nM

**Q.** And the GI50 (HCC1954)?
**A.** < 10 nM
